This note sets out measurements from patent publication US20110207722A1, “TREATMENT OF ANXIETY DISORDERS” (N[…]/S, priority 2008, published 2011).

The subject of the assay is Mice. Nature of the assay: Marble burying test. The assay is classed as in vivo, mouse. Conditions: Compound I 0.05 mg/kg orally 60 min before testing; diazepam 0.03-0.3 mg/kg i.p. 30 min before testing; 30 min test session; n=8. The procedure: FIGS. 1 and 2 show the effect of the compound exo-7-(8-H-8-aza-bicyclo[3.2.1]oct-3-yloxy)-chromen-2-one (Compound I or Cp I) and diazepam, respectively, in the mouse marble burying test. Compound I (0.05-0.2 mg/kg) was administered orally 60 min before testing. Diazepam (0.1-1 mg/kg) was injected via the intraperitoneal (i.p.) route 30 min before testing. *P<0.05, ***P<0.001 vs. vehicle-treated group (Student's t-test, n=8).
Compound I (0.05 mg/kg) was administered orally 60 min before testing. Diazepam (0.03-0.3 mg/kg) was injected via the intraperitoneal (i.p.) route 30 min before testing. Paroxetine (10 mg/kg, i.p., −30 min) served as a positive control. *P<0.05, **P<0.01 vs. vehicle-treated group (Student's t-test, n=8).
Mice were placed for 30 min in novel cages (one mouse per cage, 20×30 cm) in which there were 20 glass marbles (15 mm in diameter) situated in four rows of five placed on top of 5 cm of sawdust. […]

`O=c1ccc2ccc(O[C@@H]3C[C@H]4CC[C@@H](C3)N4)cc2o1` [Compound I, exo-7-(8-H-8-aza-bicyclo[3.2.1]oct-3-yloxy)-chromen-2-one]: the “effect on the activity of diazepam in the mouse marble burying test (number of glass marbles buried)” value is “augments the activity of diazepam”.
